Columns and labels:
rats fed with Nath diet [1] = assay: Nath diet experiments in the same manner, comparison with other drugs at present in use (25th, 35th, 45th day); type: in vivo; conditions: for increase in cholesteraemia: aminoethanethiosulphonic acid 100 mg/kg, phosphorylcholine dose not stated; for increase in triglyceridemia: Nath diet alone 100%
Procedure: Experiments were carried out in the same manner as explained above with other drugs at present in use and, more particularly, phosphorylcholine (2 doses/25 and 50 mg/kg), sillimarine (Legalon, 70 mg/kg), S-adenosyl-1-methionine (Samyr) 25 mg/kg.
In rats fed solely with the Nath diet, the increase is, however, 100%. Among the control drugs, only phosphorylcholine (50 mg/kg) achieves a slight reduction (-20%) relative to the increase observed at the end of the period with the atherogenic diet. • - as regards the cholesteraemia the protective action shown by the drug of the invention was significant. Indeed, in rats fed with the drug phosphorylcholine,a 300% increase was found after 25 days and 320% and 410% increases respectively were found on the 35th and 45th days of feeding while in rats fed with aminoethanethiosulphonic acid (100mg/kq) the increase in cholesteraemia was only 35% on the 25th and on the 35th days. On the 45th day the increase was 50%.

[2] = test system: WISTAR RATS KEPT ON A MORRIS DIET; assay: Protection in Wistar rats kept on a Morris diet for 45 days; type: in vivo; conditions: Morris diet 45 days; (XX) 100 mg/kg, phosphorylcholine 50 mg/kg
Procedure: (§1) Table IV below gives data relative to the protection offered by the administration of aminoethanethiosulphonic acid (100 mg/kg/day) and a control drug (phosphoryl- , choline, 50 mg/kg/day) to groups of Wistar rats subjected to two different atherogenic diets, specifically the Morris diet and the Handler diet, for 45 days. The data, in general, substantially repeated those observed in experiments carried out on aminals subjected to the Nath diet.

[3] = test system: WISTAR RATS ON A HANDLER DIET; assay: Protection in Wistar rats on a Handler diet for 45 days; type: in vivo; conditions: Handler diet 45 days; (XX) 100 mg/kg, phosphorylcholine 50 mg/kg
Procedure: as §1

rats fed with Nath diet [4] = assay: Antidyslipaemic effect in rats fed with Nath diet for 45 days (evaluations on 28th and 45th day); type: in vivo, female Wistar rats; conditions: for blood triglyceride level: 28th day of treatment, aminoethanethiosulphonic acid dose printed as 10 mg/kg/day, tiadenol 100 mg/kg/day (Group C); for increase in pyruvic transaminase (GPT) level compared with the controls: Nath diet alone 60%; for increase in glutamic oxaloacetic transaminase (GOT) level compared with the controls: Nath diet alone 109%
Procedure: The aminoethanethiosulphonic acid, which constitutes the drug of this invention was tested experimentally on female Wistar rats to establish its antidyslipaemic effect in comparison with drugs already in use therapeutically. For this experiment, the rats were divided into five groups of five rats which were fed in accordance with the following scheme: • GROUP "A": rats fed with a normal diet of nutritive pellets having the following composition: Composition of the nutritive pellets: [formula] with the addition of vitamins (A-D3-E-C), NaCl, CaCO3 and spring water at will. • GROUP "B": rats fed with Nath diet (Nath et al. 1959 - Journal of Nutrition, 67-289). • GROUP "C": rats fed with a Nath diet incorporating the drug tiadenol (1.25 q/kg)such that the rats could take up the drug in quantities of 100 mg/kg/day. • GROUP D: rats fed with a Nath diet incorporating the drug of the invention (1.25 g/kg of aminoethanethiosulphonic acid) such that the rats could take up the drug in quantities of 100 mg/kg/day. • GROUP"E":rats fed with a Nath diet incorporating the drug of the invention (aminoethanethiosulphonic acid) in quantities of 2.5 g/kg, so that the rats could take up the drug in quantities of 200 mg/kg/day.
The experiments were carried out over a period of 45 days. On the 28th day of treatment, the cholesteraemia and the blood triglyceride level of the rats were measured.
On the 45th day from the start of the treatment, however a whole series of systematic weight and hematochemical evaluations was carried out in accordance with the following scheme: • - liver weight/body weight percentage ratio • - ratio of the weight of the liver when removed/dry weight of the liver • - cholesteraemia according to the Watson method (1) • - blood triglyceride level according to the Bermryer method (2) • - blood alkaline phosphatase level (3,4) • - glutamic oxaloacetic transaminase level according to the Karmen method (5,6) • - glutamic pyruvic transaminase level according to the Wroblewski and La-Due method (7) • - total lipid content of the liver by extraction with ether, separation by decantation, evaporation of the ether part in an oven and weighing of the residue. • 1. - WATSON D. (1960) Clin. Chim. Acta, 5 : 637 • 2. - BERGMRYER H.U. (1975) Z. Klin. Chem. and Klin. Biochem.13 : 507 • 3; - Anon. (1970) Z.Klin. Chem. and Klin.Biochem 13 : 507. • 4. - Anon.(1972) Z.Klin. Chem. and Klin. Biochem 13 : 507. • 5. - KARMEN A. and coll. (1955) J. Clin. Invest. 34 : 126. • 6. - KARMEN A. (1955) J. Clin Invest. 34 : 131 • 7. - WROBLEWSKI F. and coll. (1956) Proc. Soc. exp. Biol. Med. 91 : 569.
Macroscopic and microscopic, anatomical-pathological examinations of the liver and of the thoracic aorta were carried out on all the animals, the microscopic examinations being carried out by means of preservation in formalin,enclosure and colouration with hematoxylin- eosin and selective dyes for the lipids according to the current methods.

rats fed with Nath diet [5] = assay: as above; type: in vivo, female Wistar rats; conditions: 28th day of treatment, tiadenol 100 mg/kg/day (Group C)
[6] = test system: liver damage in rats induced by allyl alcohol; assay: Activity against liver damage in rats induced by allyl alcohol; type: in vivo
Procedure: Experiments were carried out on the activity of the drug of this invention on liver damage in rats induced by allyl alcohol. This damage was evaluated by means of the weight of the liver, the quantity of lipids in the tissue itself and tHe excretion of BSP in the bile, as well as the changes in the GOT, GPT and the alkaline phosphatase levels in the blood.
The respective administrations to the rats were carried out intraperitoneally for 4 days. From the data in Table III it is seen that the weight of the rats'livers increased from […] in rats poisoned with allyl alcohol while the increase was only up to 5.30 mg in rats fed intraperitoneally with allyl alcohol and aminoethanethiosulphonic acid (drug of the invention). When allyl alcohol and the drug known by the name Thiola (100mg/^kg/day) was administered to the rats the liver weight increased to about 5.85 mg.

[7] = Toxicology, administration kept up for 180 days; type: in vivo; conditions: daily dose of 200 mg/kg of body weight
Solubility in water = type: physicochemical
[8] = Stability in the solid state; type: physicochemical; conditions: even at 50°C for very long periods of time
[9] = 100 mg/kg/day i.p. for 4 days, allyl alcohol 2 ml/kg p.o. 30 minutes after last administration
[10] = 100 mg/kg/day i.p. for 4 days, allyl alcohol 2 ml/kg p.o. 30 minutes after last administration, listed as (XX)

Structure (SMILES): C[N+](C)(C)CCOP(=O)(O)O [phosphorylcholine, reference compound]
- reduction in triglyceridemia relative to the increase observed at the end of the period with the atherogenic diet (rats fed with Nath diet [1]; 50 mg/kg): -20%
- increase in cholesteraemia (rats fed with Nath diet [1]; 25th day): 300%
- increase in cholesteraemia (rats fed with Nath diet [1]; 35th day): 320%
- increase in cholesteraemia (rats fed with Nath diet [1]; 45th day): 410%
- BETALIPOPROTEINS, protection [2]: 8%
- CHOLESTERAEMIA, protection [2]: 12%
- HEPATIC LIPIDS, protection [2]: 12%
- TOTAL BLOOD LIPIDS, protection [2]: 5%
- CHOLESTERAEMIA, protection [3]: 15%
- HEPATIC LIPIDS, protection [3]: 23%
- TOTAL BLOOD LIPIDS, protection [3]: 10%
- TRIGLYCERIDEMIA, protection [3]: 7%

Structure (SMILES): C[S+](CC[C@H](N)C(=O)O)C[C@H]1O[C@@H](n2cnc3c(N)ncnc32)[C@H](O)[C@@H]1O (some centres unmarked) [Samyr, S-adenosyl-1-methionine, reference compound]
- changes in the transaminase levels (GOT and GPT) (rats fed with Nath diet [1]; 35th day of administration): a certain favourable action
- protective action as regards the cholesteraemia (rats fed with Nath diet [1]; Legalon 70 mg/kg, Samyr 25 mg/kg, noticeably less than aminoethanethiosulphonic acid): a certain protective action
- protection from the point of view of lipid infiltration (rats fed with Nath diet [1]; control drugs compared with aminoethanethiosulphonic acid): protection was found but was only half that given by the aminoethanethiosulphonic acid

Structure (SMILES): OCCSCCCCCCCCCCSCCO [tiadenol, reference compound]
- blood triglyceride level (rats fed with Nath diet [4]): 44 mg%
- increase in pyruvic transaminase (GPT) level compared with the controls (rats fed with Nath diet [4]; 45th day, 100 mg/kg/day): 100%
- increase in glutamic oxaloacetic transaminase (GOT) level compared with the controls (rats fed with Nath diet [4]; 45th day, 100 mg/kg/day): 32%
- blood cholesterol level (rats fed with Nath diet [5]): 155 mg%

Structure (SMILES): NCCS(=O)(O)=S [aminoethanethiosulphonic acid]
- blood triglyceride level (rats fed with Nath diet [4]): 31 mg%
- increase in pyruvic transaminase (GPT) level compared with the controls (rats fed with Nath diet [4]; 45th day, 100 mg/kg/day): 90%
- increase in glutamic oxaloacetic transaminase (GOT) level compared with the controls (rats fed with Nath diet [4]; 45th day, 100 mg/kg/day): 23%
- increase in the hepatic lipid infiltration compared with the control animals (rats fed with Nath diet [4]; 45th day, 100 mg/kg/day, Nath diet alone 235%): 117%
- increase in the quantity of lipids in the tissue (hepatic parenchyma) (rats fed with Nath diet [1]; 25th day, 100 mg/kg, Nath diet alone + 155): 50%
- increase in the quantity of lipids in the tissue (hepatic parenchyma) (rats fed with Nath diet [1]; 25th day, 200 mg/kg, Nath diet alone + 155): 95%
- increase in cholesteraemia (rats fed with Nath diet [1]; 25th day): 35%
- increase in triglyceridemia (rats fed with Nath diet [1]; 35th day, 100 mg/kg/day): 15%
- increase in triglyceridemia (rats fed with Nath diet [1]; 35th day, 200 mg/kg/day): 40%
- increase in cholesteraemia (rats fed with Nath diet [1]; 35th day): 35%
- increase in the quantity of lipids in the tissue (hepatic parenchyma) (rats fed with Nath diet [1]; 45th day, 100 mg/kg, Nath diet alone + 225): 98%
- increase in the quantity of lipids in the tissue (hepatic parenchyma) (rats fed with Nath diet [1]; 45th day, 200 mg/kg, Nath diet alone + 225): 110%
- increase in cholesteraemia (rats fed with Nath diet [1]; 45th day): 50%
- LIVER Weight [6, 9]: 5.30
- SERUM BSP [6, 9]: 12.31 ± 0.91 µg/mL
- SERUM GOT [6, 9]: 172.0 ± 10.2 mU/ml
- SERUM GPT [6, 9]: 25.9 ± 2.5 mU/ml
- LIVER Lipids Tot. [6, 10]: 5.08 ± 0.39 mg%
- LIVER Weight [6, 10]: 5.30 ± 0.05
- LIVER Lipids Tot. ([6]; 100 mg/kg/day i.p. for 4 days, allyl alcohol 2 ml/kg p.o. 30 minutes after last administration, listed as drug of the invention): 5.08 mg%
- BETALIPOPROTEINS, protection [2]: 45%
- CHOLESTERAEMIA, protection [2]: 60%
- HEPATIC LIPIDS, protection [2]: 50%
- TOTAL BLOOD LIPIDS, protection [2]: 40%
- CHOLESTERAEMIA, protection [3]: 35%
- HEPATIC LIPIDS, protection [3]: 50%
- TOTAL BLOOD LIPIDS, protection [3]: 33%
- TRIGLYCERIDEMIA, protection [3]: 30%
- mortality [7]: did not result in any increase in mortality
- weight curve [7]: nor any variation in the weight curve
- solubility in water (Solubility in water): soluble in water
- stability in the solid state [8]: considerable stability in the solid state
- blood cholesterol level (rats fed with Nath diet [5]): 129 mg%

Structure (SMILES): CC(S)C(=O)NCC(=O)O (centres unmarked) [Thiola]
- LIVER Lipids Tot. [6, 9]: 5.23 ± 0.30 mg%
- LIVER Weight [6, 9]: about 5.85 mg
- SERUM ALKALINE PHOSPHATASE [6, 9]: 3.13 ± 0.23 U/ml
- SERUM BSP [6, 9]: 21.78 ± 2.99 µg/mL
- SERUM GOT [6, 9]: 388.0 ± 25.8 mU/ml
- SERUM GPT [6, 9]: 99.4 ± 12.2 mU/ml
- protection against the increase in the total lipid content of the liver ([6]; after allyl alcohol, 100 mg/kg/day i.p.): did not give any protection

Reference: EP0108854A1, “Drug for stimulating hepatic cell homeostasis and for restoring the functional capacity of the hepatocytes” (ARCONTHORN LIMITED, priority 1982, dated 1984)
